The test system of data set [1] is MDCK. The experiment in a line: Efflux ratio of permeability from […] side of MDCK2 cells over expressing human Pgp. The following applies: dog. The format is ADME, cell-based, Canis lupus familiaris.
Data set [2] relates to MDCK. As to the kind of experiment: Efflux ratio of permeability from […] side of wild type MDCK2 cells. Type of data set: ADME, cell-based, Canis lupus familiaris. The following applies: dog.
In a further data set the target is Cathepsin D (Homo sapiens, UniProt P07339). As to the kind of experiment: Inhibition of cathepsin D.
Data set [3] in a line: Intrinsic clearance in human liver microsomes. Type of data set: ADME, Microsome. A general note: Liver microsomes are a subcellular fraction often used to study metabolism.
Data set [4] deals with T1, Renin (Homo sapiens, UniProt P00797).
T1 sequence (P00797 whole entry): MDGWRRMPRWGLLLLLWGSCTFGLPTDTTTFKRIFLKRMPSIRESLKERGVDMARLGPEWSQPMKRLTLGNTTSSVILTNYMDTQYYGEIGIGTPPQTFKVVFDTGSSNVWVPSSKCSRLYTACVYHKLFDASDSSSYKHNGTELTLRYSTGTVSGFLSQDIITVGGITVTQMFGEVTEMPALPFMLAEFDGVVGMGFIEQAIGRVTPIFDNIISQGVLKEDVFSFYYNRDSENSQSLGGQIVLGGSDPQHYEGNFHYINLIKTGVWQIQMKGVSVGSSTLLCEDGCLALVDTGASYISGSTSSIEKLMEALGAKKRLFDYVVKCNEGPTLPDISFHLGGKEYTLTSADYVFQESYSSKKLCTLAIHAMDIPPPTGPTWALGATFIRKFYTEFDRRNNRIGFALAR
The experiment in a line: Inhibition of human plasma renin. The format is cell-free.

The target in data set [5] is T1, Renin. The experiment in a line: Inhibition of renin.
The next data set addresses Beta-secretase 1 (Homo sapiens, UniProt P56817). As to the kind of experiment: Inhibition of BACE1.
A further data set relates to human Pgp. The experiment in a line: Apparent permeability across MDCK cells transfected with human Pgp. Type of data set: ADME, cell-based, Canis lupus familiaris. The following applies: dog, MDCK-MDR1.
Data set [6] is described as follows: Apparent permeability across wild type MDCK cells. The following applies: dog. Type of data set: ADME, cell-based, Canis lupus familiaris.

Bounds are passed on as bounds.

Cathepsin D, sequence (P07339 65-162 limits assumed): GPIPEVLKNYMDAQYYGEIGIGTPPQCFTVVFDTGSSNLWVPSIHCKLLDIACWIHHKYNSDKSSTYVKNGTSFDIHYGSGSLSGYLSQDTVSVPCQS
Cathepsin D, sequence (P07339 169-412 limits assumed): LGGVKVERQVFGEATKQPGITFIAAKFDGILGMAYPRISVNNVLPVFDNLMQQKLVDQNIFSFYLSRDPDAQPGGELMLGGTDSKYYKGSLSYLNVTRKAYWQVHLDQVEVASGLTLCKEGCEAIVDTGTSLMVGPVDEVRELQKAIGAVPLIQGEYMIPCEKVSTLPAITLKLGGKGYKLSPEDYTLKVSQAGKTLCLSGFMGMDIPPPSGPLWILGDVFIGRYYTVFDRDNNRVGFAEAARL
Beta-secretase 1, sequence (P56817 whole entry): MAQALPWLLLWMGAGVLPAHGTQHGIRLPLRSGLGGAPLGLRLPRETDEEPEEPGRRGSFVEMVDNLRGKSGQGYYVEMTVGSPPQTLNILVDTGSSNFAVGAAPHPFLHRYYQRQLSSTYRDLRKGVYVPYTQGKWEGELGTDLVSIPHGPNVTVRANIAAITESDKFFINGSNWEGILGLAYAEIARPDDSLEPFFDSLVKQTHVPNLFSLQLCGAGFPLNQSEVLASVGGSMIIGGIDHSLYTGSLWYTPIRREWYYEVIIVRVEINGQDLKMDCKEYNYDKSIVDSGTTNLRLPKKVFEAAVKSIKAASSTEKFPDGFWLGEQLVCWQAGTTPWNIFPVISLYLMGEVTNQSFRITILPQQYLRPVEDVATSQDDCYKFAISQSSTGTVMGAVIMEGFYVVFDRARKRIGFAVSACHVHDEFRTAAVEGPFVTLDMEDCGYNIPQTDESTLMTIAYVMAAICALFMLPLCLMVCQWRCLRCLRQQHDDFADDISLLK

With `COCCCOc1cc(C[C@@H](C[C@H](N)[C@@H](O)C[C@H](C(=O)NCC(C)(C)C(N)=O)C(C)C)C(C)C)ccc1OC`, the figures for the Ratio in the data set with MDCK [1] and in the data set with MDCK [2] were 1.5 and 0.7, respectively.

Regarding `CC(C)[C@H](C[C@H](O)[C@H](COCc1ccccc1)NC(=O)c1cc(C(=O)N[C@H](C)c2ccccc2)cc(N(C)S(C)(=O)=O)c1)C(=O)N[C@H](C(=O)NCc1ccccc1)C(C)C`, the Ki was found to be 3.3 nM at Cathepsin D and 21 nM at Renin [5]. This compound registered a microsomal CLint in data set [3] of 260 µL/min/mg. The IC50 at Renin [4] (read-out: IC50) turned out to be 38 nM; against Beta-secretase 1 it was 30 nM.

For `CC(C)CNC(=O)[C@@H](C[C@H](O)[C@@H]1COCc2cccc(c2)C(c2ccccc2)NC(=O)c2cc(cc(N(C)S(C)(=O)=O)c2)C(=O)N1)C(C)C` (some centres not stated), the Ki on Cathepsin D turned out to be 200 nM. Moreover, the Papp (in the data set on human Pgp; in data set [6]) was 0.1 ×10⁻⁶ cm/s each time. The values for the IC50 against Renin [4] and at Beta-secretase 1 were 56 nM and 3700 nM, respectively.

For the compound `CNC(=O)[C@@H](C[C@H](O)[C@@H]1COCc2cccc(c2)C(c2ccccc2)NC(=O)c2cc(cc(N(C)S(C)(=O)=O)c2)C(=O)N1)C(C)C` (some centres not stated), the Ki on Cathepsin D is 1700 nM; at Renin [5] it was 340 nM. Moreover, the IC50 at Beta-secretase 1 is greater than 10000 nM.

For the compound `COc1ccc(C2NC(=O)c3cc(cc(N(C)S(C)(=O)=O)c3)C(=O)N[C@H]([C@@H](O)C[C@H](C(=O)NCC(C)C)C(C)C)COCc3cccc2c3)cc1` (some centres not stated), the figures for the Ki at Cathepsin D and at Renin [5] were 760 nM and 130 nM, respectively. The midpoint of inhibition against Beta-secretase 1, the IC50, lay at 3100 nM.

Consider `COCCCC1NC(=O)c2cc(cc(N(C)S(C)(=O)=O)c2)C(=O)N[C@H]([C@@H](O)C[C@H](C(=O)NCC(C)C)C(C)C)COCc2cccc1c2` (some centres not stated), for which the Ki amounted to 460 nM on Cathepsin D and 450 nM at Renin [5]. Also, the IC50 at Beta-secretase 1 is 1900 nM.

For the compound `COCCOC1CCc2cc(cc(N(C)S(C)(=O)=O)c2)C(=O)N[C@H]([C@@H](O)C[C@H](C(=O)NCC(C)C)C(C)C)COCc2cccc1c2` (some centres not stated), the Ki at Cathepsin D and at Renin [5] was greater than 5000 nM in each case. For the same compound, on Beta-secretase 1, the IC50 is greater than 10000 nM.

Consider `COCCOC1CCCc2cc(cc(N(C)S(C)(=O)=O)c2)C(=O)N[C@H]([C@@H](O)C[C@H](C(=O)NCC(C)C)C(C)C)COCc2cccc1c2` (some centres not stated), for which the Ki on Cathepsin D was greater than 5000 nM; at Renin [5], 940 nM. The IC50 on Beta-secretase 1 was greater than 10000 nM.

As usually defined, the Ki is a dissociation constant, usually derived from enzyme kinetics or from competition with a known ligand. Low readings indicate higher affinity, high ones lower affinity. Usually microsomal CLint stands for the rate of metabolic loss divided by the concentration. By IC50 is commonly meant the midpoint of a concentration-inhibition curve. Broadly, the Papp is the rate of passage across a membrane or cell layer, normalised by area and donor concentration.

The values above are taken from ChEMBL document CHEMBL1641535, “Design and synthesis of potent macrocyclic renin inhibitors” (Bioorg Med Chem Lett, 2011).
